Results as given in EP1457483A1, “Cationic lipids with serine backbone” (Ruhr-Universität Bochum, priority 2003, dated 2004).

Experiments:
COS-7 cells = assay: Automated lipofection screening: GFP-luciferase reporter gene transfer (luciferase activity per protein content); format: cell-based, African green monkey; details: point is thousands separator; for Maximum transfection efficiency, MW (mean value), Helper lipid: DOPE / Maximum transfection efficiency, MW (mean value), Helper lipid: CHOL / Maximum transfection efficiency, MW (mean value), Helper lipid: without: pEGFPLuc plasmid; for Maximum transfection efficiency, MW (mean value), Helper lipid: DOPE: cationic/helper lipid 1:0.5 with DOPE; for Maximum transfection efficiency, MW (mean value), Helper lipid: DOPE / Maximum transfection efficiency, MW (mean value), Helper lipid: CHOL: at the LDR giving the maximum; for Maximum transfection efficiency, MW (mean value), Helper lipid: CHOL: cationic/helper lipid 1:0.5 with cholesterol; for Maximum transfection efficiency, MW (mean value), Helper lipid: without: no helper lipid, at the LDR (1:1-15:1) giving the maximum
Experimental: Screening the combinatorial lipid library for lipofection properties: Goal of this first step was to compare transfection efficiency of these structurally related cationic lipids with systematically modified hydrocarbon chain compositions for the development of suitable lipofection reagents and protocols and to study the relationship between structure and transfection efficiency of this new class of cationic lipids for gene transfer. All lipids (MS-1 to MS-50, table 1) were tested using a standard protocol: From each lipid, twenty four different lipoplexes were formed containing either no helper lipid or the helper lipids DOPE and CHOL at molar amounts (1:0.5), respectively, using eight different lipid:DNA-charge ratios (LDR) from 1:1 - 15:1, resulting in a lipofection profile for each lipid. The COS-7 cell-line was used for this lipofection study since COS-7 is easy to transfect and differences between the lipids are easy to identify.
Cell culture: SV40 transformed African green monkey kidney cell line COS-7 (ATCC CRL-1651) was routinely passaged in DMEM (GIBCO BRL, Karlsruhe, Germany), respectively, supplemented with 1% L-glutamin solution (100x), 1% Penicillin/Streptomycin solution (100x) (GIBCO BRL, Karlsruhe, Germany), and 10% FCS (BioWhittaker, Verviers, Belgium) at 37°C with 5% CO2 in humidified atmosphere. For the screening cells were maintained in 96-well culture plates (Greiner, Frickenhausen, Germany) in 100 µl DMEM, 10 % FCS, 1 % Penicillin-streptomycin in a humidified atmosphere at 37 °C/5 % CO2. 24 h prior to transfection, the cells were seeded into the microtiter plate at 10,000 cells per well to reach a confluency of 50 % at the time of transfection. Dendritic cells: Dendritic cells (DC) were derived from highly purified circulating CD14(+) monocytes: In a first step, peripheral blood mononuclear leukocytes (PBL) from healthy control persons were isolated by Ficoll-Paque (Pharmacia Biotech AB, Uppsala, Sweden) density centrifugation. The following immunomagnetic purification of the monocytes from PBL was performed using CD14 Microbeads and MiniMACS high gradient magnetic separation columns (Miltenyi Biotech, Bergisch Gladbach, Germany) according to manufacturer's instructions. Isolated monocytes (5 x 10^5/well) were cultured in RPMI supplemented with 10 % FCS, or serum-free Macrophage-SFM medium (GIBCO BRL, Karlsruhe, Germany) supplemented with human recombinant GM-CSF (0.05µg/ml) and IL-4 (0.025µg/ml) (PromoCell, Heidelberg, Germany) in 6-well plates. Aliquots of the cells were reanalyzed by FACS with anti-CD14 mAbs (Pharmingen, San Diego, CA). After 5-6 days non-adherent cells were collected and purity of DCs was determined by FACS analysis using a FACSort flow cytometer (Becton Dickinson, Mountain View, CA) and the CellQuest software for data processing as recently described (Jantscheff, P. et al., J. Immunol. Methods 163(1):91-7 (1993)).

primary dendritic cells = assay: Transfection of primary dendritic cells with lipoplexes (luciferase activity per protein content); format: cell-based, human
Experimental: Cell culture: SV40 transformed African green monkey kidney cell line COS-7 (ATCC CRL-1651) was routinely passaged in DMEM (GIBCO BRL, Karlsruhe, Germany), respectively, supplemented with 1% L-glutamin solution (100x), 1% Penicillin/Streptomycin solution (100x) (GIBCO BRL, Karlsruhe, Germany), and 10% FCS (BioWhittaker, Verviers, Belgium) at 37°C with 5% CO2 in humidified atmosphere. For the screening cells were maintained in 96-well culture plates (Greiner, Frickenhausen, Germany) in 100 μl DMEM, 10 % FCS, 1 % Penicillin-streptomycin in a humidified atmosphere at 37 °C/5 % CO2. 24 h prior to transfection, the cells were seeded into the microtiter plate at 10,000 cells per well to reach a confluency of 50 % at the time of transfection. […] After 5-6 days non-adherent cells were collected and purity of DCs was determined by FACS analysis using a FACSort flow cytometer (Becton Dickinson, Mountain View, CA) and the CellQuest software for data processing as recently described (Jantscheff, P. et al., J. Immunol. Methods 163(1):91-7 (1993)). […] Binding specificity was determined using IgG1 (MOPC-21), IgG2a (UPC-10), or IgG2b (MOPC-141) isotype control mAbs (SIGMA-ALDRICH Chemie, Buchs, Switzerland). […]

| Compound | Maximum transfection efficiency, MW (mean value), Helper lipid: DOPE (COS-7 cells) | Maximum transfection efficiency, MW (mean value), Helper lipid: CHOL (COS-7 cells) | Maximum transfection efficiency, MW (mean value), Helper lipid: without (COS-7 cells) | Transfection efficiencies, RLU (primary dendritic cells; helper lipid 1:0.5 at optimum lipid:DNA ratio, ± standard deviation (lu µg^-1 protein)) | % DOTAP (primary dendritic cells; standardized on lipofection efficiency of DOTAP-lipoplexes set to 100%) | transfection efficiency (DOTAP values) (COS-7 cells; best lipid/DNA charge ratio of 2.5, determined in each run) |
| --- | --- | --- | --- | --- | --- | --- |
| CCCCCCCCCCCCCC[N+](C)(CCCCCCCCCCCCCC)[C@@H](CO)C(=O)NCCCCCCN [compound 47] | 50.115 RLU | 56.974 RLU | 533 RLU |  |  |  |
| CCCCCCCCCCCCCCCCCC[N+](C)(CCCCCCCCCCCCCCCCCC)[C@@H](CO)C(=O)NCCCCCN [compound 44] | 1.712 RLU | 28.104 RLU | 3.542 RLU |  |  |  |
| CCCCCCCCCCCCN(CCCCCCCCCCCC)[C@@H](CO)C(=O)NCCCCCN [compound 16] | 49.071 RLU | 45.849 RLU | 442 RLU |  |  |  |
| CCCCCCCCCCCCCC[N+](C)(CCCCCCCCCCCCCC)[C@@H](CO)C(=O)NCCCN [compound 32] | 225.268 RLU | 447.443 RLU | 2.075 RLU |  |  |  |
| CCCCCCCC/C=C\CCCCCCCC(=O)OCC(C[N+](C)(C)C)OC(=O)CCCCCCC/C=C\CCCCCCCC (stereo not drawn) [DOTAP, N-[1-(2,3-dioleoyloxy)propyl]-N,N,N-trimethylammonium methylsulfate] |  |  |  | 235 ± 119 RLU | 100% | 30.838 ± 6.363 RLU |
| CCCCCCCCCCCC[N+](C)(CCCCCCCCCCCC)[C@@H](CO)C(=O)NCCCCCCN [compound 46] | 560 RLU | 766 RLU | 956 RLU |  |  |  |
| CCCCCCCC/C=C\CCCCCCCC[N+](C)(CCCCCCCC/C=C\CCCCCCCC)[C@@H](CO)C(=O)NCCCCCCN [compound 50] | 39.590 RLU | 70.812 RLU | 17.315 RLU |  |  |  |
| CCCCCCCCCCCCCCN(CCCCCCCCCCCCCC)[C@@H](CO)C(=O)NCCCCN [compound 12] | 167.970 RLU | 274.483 RLU | 440.931 RLU |  |  |  |
| CCCCCCCCCCCCCCN(CCCCCCCCCCCCCC)[C@@H](CO)C(=O)NCCCCCN [compound 17] | 453.572 RLU | 237.556 RLU | 249.143 RLU |  |  |  |
